From patent US4243668A, “Octahydro-1H-benzo[4,5]furo[3,2-e]-isoquinoline analgesic and narcotic antagonistic compounds” (priority 1979, dated 1981) come the findings set out here.

Where two headings read alike, the source gives them in different places. Bounds are passed on as bounds.

The subject of assay [1] is Straub tail. Nature of the assay: Straub tail reaction (oral), narcotic agonist effect. The format is in vivo, CF1 S female mice. The following applies: Mus musculus, mice. How it is done: Narcotic analgesics produce in mice an erection and arching of the tail (90° or more) which is referable to spinal cord stimulation. This Straub tail reaction is not produced by other analgesics, including the narcotic antagonists.
The method used was modified from Shemano, I., and Wendel, H., Tox. Appl. Pharm., 6, 334-9 (1964). CF1 S female mice (18-21 g), 10-20 mice per dose, were intubated with log scaled doses of analgesic in 1% aqueous methylcellulose. A positive Straub tail response was recorded if a tail was erected 90° or more for 5 seconds at any time within 24 minutes after dosing. A quantal Straub tail ED50 was calculated by the moving average method [Thompson, W. R., Bact. Rev., 11, 115-145 (1947)].

The test system of assay [2] is pain induced by phenylquinone. Nature of the assay: phenylquinone writhing test (oral anti-PQW), analgesic activity. The following applies: for ED50: Mus musculus, po, mice, oral, phenylquinone writhing, read-out: EFFECT ED50 Oral Anti-PQW. The format is in vivo, female white mice. How it is done: A standard procedure for detecting and comparing the analgesic activity of compounds in this series for which there is good correlation with human efficacy is the standard phenylquinone writhing test modified from Siegmund, et al., Proc. Soc. Exp. Biol. Med., 95, 729 (1957). A test compound suspended in 1% methocel® was given orally to fasted (17-21 hours) female white mice, 5-20 animals per double blind test. Aqueous (0.01% phenyl-p-benzoquinone) phenylquinone was injected intraperitoneally at 24 minutes later using 0.20 ml per mouse. […] The effective analgesic dose for 50% of the mice (ED50) was calculated by the moving average method of Thompson, W. R., Bact. Rev., 11, 115-145 (1947).
For orientation: Writhing tests count abdominal constrictions after an irritant is injected.

Assay [3] concerns induction of Straub tail in mice by a highly addicting agonist such as morphine. Nature of the assay: anti-Straub tail test, antagonism of morphine-induced Straub tail (narcotic antagonism). Format: in vivo, Female CF1 S mice. The following applies: for ED50: Mus musculus; for ED50 / EFFECT ED50 subcutaneous(s.c.) Anti-Straub Tail: mice, vs morphine sulfate 30 mg/kg i.p.
The mark [4] stands for this setting: ip, i.p., read-out: EFFECT ED50 Intraperitoneal(i.p.) Anti-Straub Tail.
Where [5] appears, read: sc, s.c., read-out: EFFECT ED50 subcutaneous(s.c.) Anti-Straub Tail.

As to `CN1CC[C@]23c4ccccc4O[C@H]2CCC[C@H]3C1` (relative stereo) [Example 1, 3-Methyl-2,3,4,4aα,5,6,7,7aα,octahydro-1H-benzo[4,5]furo[3,2-e]isoquinoline], the ED50 in assay [1] was over 81 mg/kg; in assay [2], 14 mg/kg.
On to `COc1cccc2c1O[C@H]1CCC[C@H]3CN(C)CC[C@@]231` (relative stereo) [Example 2, 9-Methoxy-3-methyl-2,3,4,4aα-5,6,7,7aα-octahydro-1H-benzo[4,5]furo[3,2-e]isoquinoline], for which the ED50 was over 135 mg/kg in assay [1], 9.8 mg/kg in assay [2] and 10.1 mg/kg in assay [3] (setting [4]).
Turning to `CN1CC[C@]23c4cccc(O)c4O[C@H]2CCC[C@H]3C1` (relative stereo) [Example 3, 3-Methyl-2,3,4,4aα,5,6,7,7aα-octahydro-1H-benzo[4,5]furo[3,2-e]isoquinolin-9-ol], the ED50 in assay [1] was over 135 mg/kg; in assay [2] it was 3.5 mg/kg; in assay [3] (setting [5]), 0.27 mg/kg.
In the case of `COc1cccc2c1O[C@H]1CCC[C@H]3CN(CC4CC4)CC[C@@]231` (relative stereo) [Example 4, 3-Cyclopropylmethyl-9-methoxy-2,3,4,4aα,5,6,7,7aα-octahydro-1H-benzo[4,5]furo[3,2-e]isoquinoline], the ED50 in assay [1] is over 135 mg/kg; in assay [2], 19.7 mg/kg; in assay [3] (setting [4]), 0.31 mg/kg.
In the case of `Oc1cccc2c1O[C@H]1CCC[C@H]3CN(CC4CC4)CC[C@@]231` (relative stereo) [Example 5, 3-Cyclopropylmethyl-2,3,4,4aα,5,6,7,7aα-octahydro-1H-benzo[4,5]furo[3,2-e]isoquinolin-9-ol], the ED50 in assay [1] is over 81 mg/kg; in assay [2], 0.75 mg/kg; in assay [3] (setting [5]), 0.006 mg/kg. The “analgesic potency compared with morphine” value in assay [2] (mouse analgesia data, relative to morphine) was “several times greater potency than morphine”.
As for `Oc1cccc2c1O[C@H]1CCC[C@H]3CN(CC4CCC4)CC[C@@]231` (relative stereo) [Example 7, 3-Cyclobutylmethyl-2,3,4,4aα,5,6,7,7aα-octahydro-1H-benzo[4,5]furo[3,2-e]isoquinoline-9-ol], the figures for the ED50 in assay [1], in assay [2] and in assay [3] (setting [4]) were over 81 mg/kg, 81 mg/kg and 0.64 mg/kg, respectively.
Consider `CC(=O)Oc1cccc2c1O[C@H]1CCC[C@H]3CN(CC4CC4)CC[C@@]231` (relative stereo) [Example 9, 3-Cyclopropylmethyl-9-acetoxy-2,3,4,4aα,5,6,7,7aα-octahydro-1H-benzo[4,5]furo[3,2-e]isoquinoline], for which the values for the 50% effective dose (ED50) in assay [1], in assay [2] and in assay [3] (setting [5]) were over 135 mg/kg, 0.75 mg/kg and 0.005 mg/kg, respectively.
As to `COc1cccc2c1O[C@H]1CCC[C@H]3CN(Cc4ccccc4)CC[C@@]231` (relative stereo) [Example 10, 3-Benzyl-9-methoxy-2,3,4,4aα,5,6,7,7aα-octahydro-1H-benzo[4,5]furo[3,2-e]isoquinoline], the ED50 was over 81 mg/kg in assay [1], 48 mg/kg in assay [2] and 48 mg/kg in assay [3] (setting [5]). The “narcotic antagonism, in words” value in assay [3] (mouse anti-Straub tail test) is on record as “pure narcotic antagonists”.
Consider `Oc1cccc2c1O[C@H]1CCC[C@H]3CN(Cc4ccccc4)CC[C@@]231` (relative stereo) [Example 11, 3-Benzyl-2,3,4,4aα,5,6,7,7aα-octahydro-1H-benzo[4,5]furo[3,2-e]isoquinoline-9-ol], for which the 50% effective dose (ED50) is over 81 mg/kg in assay [1], 29 mg/kg in assay [2] and 1.2 mg/kg in assay [3] (setting [5]).
In the case of `COc1cccc2c1O[C@H]1CCC[C@H]3CNCC[C@@]231` (relative stereo) [Example 12, 9-Methoxy-2,3,4,4aα,5,6,7,7aα-octahydro-1H-benzo[4,5]furo[3,2-e]isoquinoline], the ED50 in assay [1] is over 81 mg/kg; in assay [2] it was 47 mg/kg.
For `Oc1cccc2c1O[C@H]1CCC[C@H]3CNCC[C@@]231` (relative stereo) [Example 13, 2,3,4,4aα,5,6,7,7aα-octahydro-1H-benzo[4,5]furo[3,2-e]isoquinol in-9-ol], the median effective dose (ED50) in assay [1] was over 135 mg/kg; in assay [2], 15 mg/kg; in assay [3] (setting [5]), over 27 mg/kg.
In the same order, the values of `CCN1CC[C@]23c4cccc(OC)c4O[C@H]2CCC[C@H]3C1` (relative stereo) [Example 14a, 3-ethyl-9-methoxy-2,3,4,4aα,5,6,7,7aα-octahydro-1H-benzo[4,5]furo[3,2-e] isoquinoline] are over 135 mg/kg, 63 mg/kg and 0.71 mg/kg.
In the same order, the values of `CCN1CC[C@]23c4cccc(O)c4O[C@H]2CCC[C@H]3C1` (relative stereo) [Example 14b, 3-Ethyl-2,3,4,4aα,5,6,7,7aα-octahydro-1H-benzo[4,5]furo[3,2-e]isoquinolin-9-ol] are over 135 mg/kg, 135 mg/kg and 0.028 mg/kg.
The matching figures for `C=CCN1CC[C@]23c4cccc(OC)c4O[C@H]2CCC[C@H]3C1` (relative stereo) [Example 15, 3-Allyl-9-methoxy-2,3,4,4aα,5,6,7,7aα-octahydro-1H-benzo[4,5]furo[3,2-e]isoquinoline]: over 135 mg/kg, 62 mg/kg and 0.3 mg/kg.
As to `C=CCN1CC[C@]23c4cccc(O)c4O[C@H]2CCC[C@H]3C1` (relative stereo) [Example 16, 3-Allyl-2,3,4,4aα,5,6,7,7aα-octahydro-1H-benzo[4,5]furo[3,2-e]isoquinolin-9-ol], the ED50 was over 81 mg/kg in assay [1], 81 mg/kg in assay [2] and 0.03 mg/kg in assay [3] (setting [5]).
For `COc1cccc2c1O[C@H]1CCC[C@H]3CN(CC=C(C)C)CC[C@@]231` (relative stereo) [Example 17, 3-(3'-Methyl-2'-butenyl)-9-methoxy-2,3,4,4aα,5,6,7,7aα-octahydro-1H-benzo[4,5]furo[3,2-e]isoquinoline], the ED50 in assay [1] is over 135 mg/kg; in assay [2], 18.7 mg/kg; in assay [3] (setting [5]), 7.8 mg/kg.
The matching figures for `CC(C)=CCN1CC[C@]23c4cccc(O)c4O[C@H]2CCC[C@H]3C1` (relative stereo) [Example 18, 3-(3'-methyl-2'-butenyl)-2,3,4,4aα,5,6,7,7aα-octahydro-1H-benzo[4,5]furo[3,2-e]isoquinolin-9-ol]: 32 mg/kg, 10.8 mg/kg and over 27 mg/kg.
The matching figures for `CC(C)CCN1CC[C@]23c4cccc(O)c4O[C@H]2CCC[C@H]3C1` (relative stereo) [Example 19, 3-(3'-Methylbutyl)-2,3,4,4aα,5,6,7,7aα-octahydro-1H-benzo[4,5]furo[3,2-e]isoquinolin-9-ol]: over 135 mg/kg, 33 mg/kg and 0.64 mg/kg.
In the same order, the values of `COc1cccc2c1O[C@H]1CCC[C@H]3CN(CC#N)CC[C@@]231` (relative stereo) [Example 20, 9-Methoxy-2,3,4,4aα,5,6,7,7aα-octahydro-1H-benzo[4,5]furo[3,2-e]isoquinoline-3-acetonitrile] are over 135 mg/kg, 26 mg/kg and over 27 mg/kg.
On to `CN1CCC23c4cccc(O)c4OC2CCCC3C1` (single isomer, unassigned; isomer 3) [Example 3 (+)isomer, 3-Methyl-2,3,4,4aα,5,6,7,7aα-octahydro-1H-benzo[4,5]furo[3,2-e]isoquinolin-9-ol], for which the “EFFECT ED50 subcutaneous(s.c.) Anti-Straub Tail” value in assay [3] (s.c., listed as 3 (+)isomer) was 3.3.
`CN1CCC23c4cccc(O)c4OC2CCCC3C1` (single isomer, unassigned; isomer 3) [Example 3 (-)isomer, 3-Methyl-2,3,4,4aα,5,6,7,7aα-octahydro-1H-benzo[4,5]furo[3,2-e]isoquinolin-9-ol] displayed an ED50 in assay [1] of over 135 mg/kg. For the same molecule, in assay [3] (s.c., listed as 3 (-)isomer), the “EFFECT ED50 subcutaneous(s.c.) Anti-Straub Tail” value came out at 0.14.
As for `CCCCCCN1CCC23c4cccc(O)c4OC2CCCC3C1` (centres unmarked) [Example 28], the ED50 in assay [1] is 26 mg/kg; in assay [2], 2.9 mg/kg.
Consider `CCCCCCCCN1CCC23c4cccc(OC)c4OC2CCCC3C1` (centres unmarked) [Example 29], for which the ED50 in assay [2] is 7.2 mg/kg; in assay [3] (setting [5]) it was over 27 mg/kg.
`CCCCCCCCN1CCC23c4cccc(O)c4OC2CCCC3C1` (centres unmarked) [Example 30]: the median effective dose (ED50) was found to be 54 mg/kg in assay [1] and 4.2 mg/kg in assay [2].
As for `COc1cccc2c1OC1CCCC3CN(CC4CCCCC4)CCC231` (centres unmarked) [Example 33], the values for the ED50 in assay [1] and in assay [2] were over 135 mg/kg and 135 mg/kg, respectively.
Turning to `COc1cccc2c1OC1CCCC3CN(CC4CCCO4)CCC231` (centres unmarked) [Example 39], the ED50 in assay [2] is 16.7 mg/kg; in assay [3] (setting [5]), 4.7 mg/kg.
In the same order, the values of `Oc1cccc2c1OC1CCCC3CN(CC4CCCO4)CCC231` (centres unmarked) [Example 40] are 11.8 mg/kg and 0.19 mg/kg.
On to `Oc1cccc2c1OC1CCCC3CN(Cc4cccs4)CCC231` (centres unmarked) [Example 42], for which the ED50 was over 135 mg/kg in assay [1] and 108 mg/kg in assay [2].

The term ED50 denotes the dose at which the effect has come halfway, by size or by number of responders.
